Publication PMC6431176 (Proceedings of the National Academy of Sciences of the …, 2019)

Target: T1, Stl1 (Saccharomyces cerevisiae, UniProt P39932)
T1 sequence (P39932 1-569): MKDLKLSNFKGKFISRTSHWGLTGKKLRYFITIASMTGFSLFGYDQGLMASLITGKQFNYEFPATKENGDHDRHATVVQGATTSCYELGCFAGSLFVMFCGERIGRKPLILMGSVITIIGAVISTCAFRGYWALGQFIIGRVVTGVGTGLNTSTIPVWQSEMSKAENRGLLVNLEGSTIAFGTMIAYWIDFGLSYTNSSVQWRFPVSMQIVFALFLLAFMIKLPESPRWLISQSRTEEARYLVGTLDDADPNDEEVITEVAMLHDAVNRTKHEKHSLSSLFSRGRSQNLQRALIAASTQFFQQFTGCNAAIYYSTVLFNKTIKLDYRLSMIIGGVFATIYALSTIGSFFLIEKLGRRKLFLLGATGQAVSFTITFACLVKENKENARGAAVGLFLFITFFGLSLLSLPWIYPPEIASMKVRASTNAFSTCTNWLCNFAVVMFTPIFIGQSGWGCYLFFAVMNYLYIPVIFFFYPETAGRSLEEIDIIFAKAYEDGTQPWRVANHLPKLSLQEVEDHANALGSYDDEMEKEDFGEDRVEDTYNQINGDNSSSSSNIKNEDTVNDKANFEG
Experiment: […]-glycerol accumulation in S. cerevisiae
Assay type: cell-based
Details: labelled compound; 1 mM, Tris/citrate pH 5.0, 30 °C

OCC(O)CO [glycerol]
14C-glycerol accumulation in S. cerevisiae: higher uptake rate of glycerol by the Stl1 transporter compared with the HGT-1 transporter
